# According to US8664186B2, “Stambomycin and derivatives, their production and their uses as drugs” (Universite de Lorraine, priority 2009, dated 2014):
# Where two headings read alike, the source gives them in different places.
# Experiments:
# HT29 cells = test: anti-proliferative activity using HT29 cells; type: cell-based, human
# Protocol: (§1) Cytotoxicity was tested using CHO-K1 cells and anti-proliferative activity was examined using HT29 cells.
# (§2) The effects were compared with Doxorubicin and Sodium butyrate.
# CHO-K1 cells = test: cytotoxicity using CHO-K1 cells; type: cell-based, Chinese hamster; settings: Cricetulus griseus, CHO-K1 ovary sane cell line
# Protocol: as §1, §2
Structure (SMILES),"IC50 (HT29 cells; HT-29, HT29 human colon adenocarcinoma, read-out: IC50 (μM) for HT29)",IC50 (CHO-K1 cells),"IC50 (HT29 cells; Homo sapiens, HT-29, read-out: IC50 (μM) for HT29)"
COc1cccc2c1C(=O)c1c(O)c3c(c(O)c1C2=O)C[C@@](O)(C(=O)CO)C[C@@H]3O[C@H]1C[C@H](N)[C@H](O)[C@H](C)O1 [Doxorubicin],1.32 µM,1.99 µM,
CCCC(=O)[O-].[Na+] [Sodium butyrate],,,4890 µM
